Assay results reported in US20250009819A1, “NOVEL PROBIOTICS AND USE THEREOF” (PBLBIOLAB CO., LTD., priority 2021, published 2025).

Key:
[1] = system: gut microbiota; assay: LPS production in gut microbiota (ELISA); assay type: cell-based; settings: human feces culture; lactic acid bacteria 1×10^6 CFU/mL; anaerobic 24 hr
Method: Fresh human feces were suspended in anaerobic medium (GAM, Nissui Pharmaceutical Co., Ltd., Japan) and allowed to stand for 10 min. The supernatant was diluted with 10,000-fold anaerobic medium, 0.05 mL of the dilution was transplanted into 5 mL of freshly made anaerobic medium, and lactic acid bacteria (1×10^6 CFU/mL) were implanted and incubated anaerobically for 24 hr.

[2] = Antioxidant activity (DPPH, in vitro); assay type: biochemical; settings: DPPH 0.2 mM; lactic acid bacteria suspension 1×10^8 CFU/ml; 37° C. 20 min
Method: DPPH (2,2-Diphenyl-1-picrylhydrazyl) was dissolved in ethanol to a concentration of 0.2 mM to prepare DPPH solution. Lactic acid bacteria suspension (1×10^8 CFU/ml) or vitamin C solution (1 g/ml) was added to 0.1 ml of the above DPPH solution and incubated at 37° C. for 20 min. The culture was centrifuged at 3000 rpm for 5 min to obtain a supernatant. The absorbance of the supernatant was then measured at 517 nm and the antioxidant activity of the lactic acid bacteria was calculated.

[3] = system: BDNF; assay: BDNF expression in SH-SY5Y cells; assay type: cell-based; settings: LPS 200 ng/ml; lactic acid bacteria 1×10^4 CFU/ml; 24 h
Method: SH-SY5Y cells obtained from the Korean Cell Line Bank were cultured in DMEM medium supplemented with 10% FBS and 1% antibiotics, and dispensed at 2×10^6 cells per well in a 12-well plate. Then, LPS (200 ng/ml) was added to each well along with lactic acid bacteria (1×10^4 CFU/ml) and incubated for 24 h. The cells and supernatants were collected, sonicated and centrifuged, and the amount of BDNF in the supernatant was measured by ELISA kit.

[4] = system: TNF-α; assay: TNF-α expression in LPS-treated macrophages (ELISA); assay type: cell-based, C57BL/6 mice; settings: macrophages treated with lactic acid bacteria and LPS for 24 hours
Method: (§1) C57BL/6 mice (male, 6 weeks old, 20-23 g) were subjected to an intraperitoneal injection of 2 ml of sterile 4% thioglycolate solution, and after 96 hours, the mice were anesthetized and injected with 8 ml of RPMI 1640 medium through the peritoneal cavity. Then, after 5-10 minutes, the RPMI medium (macrophages) in the mouse peritoneal cavity was extracted, centrifuged at 1000 g for 10 minutes, and washed again with RPMI 1640 medium twice. Macrophages were seeded in 24-well plates at a count of 0.5×10^6 in each well, and treated with lactic acid bacteria and LPS, an inflammatory response-inducing substance, for 24 hours. TNF-α and IL-10 cytokine expression amount in the culture supernatant was then measured by ELISA Kit.

[5] = system: Neuropeptide Y (NPY); assay: Neuropeptide Y (NPY) expression in PC12 phaeochromocytoma cells; assay type: cell-based; settings: LPS 200 ng/ml; lactic acid bacteria 1×10^4 CFU/ml; 24 hr
Method: PC12 cells obtained from the Korean Cell Line Bank were cultured in DMEM medium supplemented with 10% FBS and 1% antibiotics, and dispensed at 1×10^6 cells per well in a 12-well plate. Then, LPS (200 ng/ml) was added to each well along with lactic acid bacteria (1×10^4 CFU/ml) and incubated for 24 hr. The cells and supernatants were collected, sonicated and centrifuged, and the amount of NPY in the supernatant was measured by ELISA kit.

[6] = system: IL-10; assay: IL-10 expression in LPS-treated macrophages (ELISA); assay type: cell-based, C57BL/6 mice; settings: macrophages treated with lactic acid bacteria and LPS for 24 hours
Method: as §1

[7] = system: Clostridium difficile; assay: Clostridium difficile proliferation in gut microbiota (PCR); assay type: cell-based; settings: human feces culture; lactic acid bacteria 1×10^6 CFU/mL; anaerobic 24 hr
Method: Fresh human feces were suspended in anaerobic medium (GAM, Nissui Pharmaceutical Co., Ltd., Japan) and allowed to stand for 10 min. The supernatant was diluted with 10,000-fold anaerobic medium, 0.05 mL of the dilution was transplanted into 5 mL of freshly made anaerobic medium, and lactic acid bacteria (1×10^6 CFU/mL) were implanted and incubated anaerobically for 24 hr. This culture medium was divided into two, one was centrifuged (5000 rpm, 20 minutes), the precipitated DNA was isolated using the QIAamp DNA stool mini kit (Qiagen, Germany), and Clostridium difficile (primer: forward, 5′-[…]-3′ (SEQ ID NO: 4); reverse, 5′-[…]-3′ (SEQ ID NO: 5) was quantified by PCR. The reaction product was first treated at 95° C. for 30 seconds, followed by 42 cycles of 5 seconds at 95° C. and 30 seconds at 72° C. for analysis. In addition, one culture medium was sonicated, centrifuged, and filter-sterilized, and the amount of LPS in the supernatant was measured using an ELISA kit.

## Lactobacillus casei NK195
[1]
  Gut microbiota Inhibition of LPS production: − (not or less than 20% (−; <20%))
[2]
  Antioxidant activity: + (weakly (+; >20-60%))
[3]
  SHSY5Y cell Induction of BDNF expression: − (not or less than 20% (−; <20%))
[4]
  Macrophage Inhibition of TNF-α expression: + (weakly (+; >20-60%))
[5]
  PC12 cell Induction of NPY expression: − (not or less than 20% (−; <20%))
[6]
  Macrophage Induction of IL-10 expression: + (weakly (+; >20-60%))
[7]
  Gut microbiota Inhibition of difficile bacteria proliferation: + (weakly (+; >20-60%))

## Lactobacillus casei NK196
[1]
  Gut microbiota Inhibition of LPS production: + (weakly (+; >20-60%))
[2]
  Antioxidant activity: ++ (strongly (++; >60-90%))
[3]
  SHSY5Y cell Induction of BDNF expression: − (not or less than 20% (−; <20%))
[4]
  Macrophage Inhibition of TNF-α expression: − (not or less than 20% (−; <20%))
[5]
  PC12 cell Induction of NPY expression: + (weakly (+; >20-60%))
[6]
  Macrophage Induction of IL-10 expression: − (not or less than 20% (−; <20%))
[7]
  Gut microbiota Inhibition of difficile bacteria proliferation: + (weakly (+; >20-60%))

## Lactobacillus gasseri NK185
[1]
  Gut microbiota Inhibition of LPS production: − (not or less than 20% (−; <20%))
[2]
  Antioxidant activity: ++ (strongly (++; >60-90%))
[3]
  SHSY5Y cell Induction of BDNF expression: − (not or less than 20% (−; <20%))
[4]
  Macrophage Inhibition of TNF-α expression: + (weakly (+; >20-60%))
[5]
  PC12 cell Induction of NPY expression: + (weakly (+; >20-60%))
[6]
  Macrophage Induction of IL-10 expression: + (weakly (+; >20-60%))
[7]
  Gut microbiota Inhibition of difficile bacteria proliferation: + (weakly (+; >20-60%))

## Lactobacillus gasseri NK186
[1]
  Gut microbiota Inhibition of LPS production: + (weakly (+; >20-60%))
[2]
  Antioxidant activity: + (weakly (+; >20-60%))
[3]
  SHSY5Y cell Induction of BDNF expression: − (not or less than 20% (−; <20%))
[4]
  Macrophage Inhibition of TNF-α expression: + (weakly (+; >20-60%))
[5]
  PC12 cell Induction of NPY expression: − (not or less than 20% (−; <20%))
[6]
  Macrophage Induction of IL-10 expression: + (weakly (+; >20-60%))
[7]
  Gut microbiota Inhibition of difficile bacteria proliferation: + (weakly (+; >20-60%))

## Lactobacillus gasseri NK187
[1]
  Gut microbiota Inhibition of LPS production: + (weakly (+; >20-60%))
[2]
  Antioxidant activity: + (weakly (+; >20-60%))
[3]
  SHSY5Y cell Induction of BDNF expression: + (weakly (+; >20-60%))
[4]
  Macrophage Inhibition of TNF-α expression: + (weakly (+; >20-60%))
[5]
  PC12 cell Induction of NPY expression: − (not or less than 20% (−; <20%))
[6]
  Macrophage Induction of IL-10 expression: − (not or less than 20% (−; <20%))
[7]
  Gut microbiota Inhibition of difficile bacteria proliferation: + (weakly (+; >20-60%))

## Lactobacillus johnsonii NK202
[1]
  Gut microbiota Inhibition of LPS production: + (weakly (+; >20-60%))
[2]
  Antioxidant activity: + (weakly (+; >20-60%))
[3]
  SHSY5Y cell Induction of BDNF expression: + (weakly (+; >20-60%))
[4]
  Macrophage Inhibition of TNF-α expression: + (weakly (+; >20-60%))
[5]
  PC12 cell Induction of NPY expression: + (weakly (+; >20-60%))
[6]
  Macrophage Induction of IL-10 expression: + (weakly (+; >20-60%))
[7]
  Gut microbiota Inhibition of difficile bacteria proliferation: + (weakly (+; >20-60%))

## Lactobacillus johnsonii NK203
[1]
  Gut microbiota Inhibition of LPS production: − (not or less than 20% (−; <20%))
[2]
  Antioxidant activity: + (weakly (+; >20-60%))
[3]
  SHSY5Y cell Induction of BDNF expression: − (not or less than 20% (−; <20%))
[4]
  Macrophage Inhibition of TNF-α expression: + (weakly (+; >20-60%))
[5]
  PC12 cell Induction of NPY expression: − (not or less than 20% (−; <20%))
[6]
  Macrophage Induction of IL-10 expression: + (weakly (+; >20-60%))
[7]
  Gut microbiota Inhibition of difficile bacteria proliferation: − (not or less than 20% (−; <20%))

## Lactobacillus mucosae NK204
[1]
  Gut microbiota Inhibition of LPS production: − (not or less than 20% (−; <20%))
[2]
  Antioxidant activity: + (weakly (+; >20-60%))
[3]
  SHSY5Y cell Induction of BDNF expression: − (not or less than 20% (−; <20%))
[4]
  Macrophage Inhibition of TNF-α expression: − (not or less than 20% (−; <20%))
[5]
  PC12 cell Induction of NPY expression: − (not or less than 20% (−; <20%))
[6]
  Macrophage Induction of IL-10 expression: − (not or less than 20% (−; <20%))
[7]
  Gut microbiota Inhibition of difficile bacteria proliferation: + (weakly (+; >20-60%))

## Lactobacillus mucosae NK205
[1]
  Gut microbiota Inhibition of LPS production: − (not or less than 20% (−; <20%))
[2]
  Antioxidant activity: + (weakly (+; >20-60%))
[3]
  SHSY5Y cell Induction of BDNF expression: − (not or less than 20% (−; <20%))
[4]
  Macrophage Inhibition of TNF-α expression: − (not or less than 20% (−; <20%))
[5]
  PC12 cell Induction of NPY expression: + (weakly (+; >20-60%))
[6]
  Macrophage Induction of IL-10 expression: − (not or less than 20% (−; <20%))
[7]
  Gut microbiota Inhibition of difficile bacteria proliferation: − (not or less than 20% (−; <20%))

## Lactobacillus paracasei NK189
[1]
  Gut microbiota Inhibition of LPS production: + (weakly (+; >20-60%))
[2]
  Antioxidant activity: + (weakly (+; >20-60%))
[3]
  SHSY5Y cell Induction of BDNF expression: − (not or less than 20% (−; <20%))
[4]
  Macrophage Inhibition of TNF-α expression: + (weakly (+; >20-60%))
[5]
  PC12 cell Induction of NPY expression: − (not or less than 20% (−; <20%))
[6]
  Macrophage Induction of IL-10 expression: − (not or less than 20% (−; <20%))
[7]
  Gut microbiota Inhibition of difficile bacteria proliferation: + (weakly (+; >20-60%))

## Lactobacillus plantarum NK181
[1]
  Gut microbiota Inhibition of LPS production: − (not or less than 20% (−; <20%))
[2]
  Antioxidant activity: + (weakly (+; >20-60%))
[3]
  SHSY5Y cell Induction of BDNF expression: − (not or less than 20% (−; <20%))
[4]
  Macrophage Inhibition of TNF-α expression: + (weakly (+; >20-60%))
[5]
  PC12 cell Induction of NPY expression: + (weakly (+; >20-60%))
[6]
  Macrophage Induction of IL-10 expression: − (not or less than 20% (−; <20%))
[7]
  Gut microbiota Inhibition of difficile bacteria proliferation: + (weakly (+; >20-60%))

## Lactobacillus plantarum NK182
[1]
  Gut microbiota Inhibition of LPS production: − (not or less than 20% (−; <20%))
[2]
  Antioxidant activity: ++ (strongly (++; >60-90%))
[3]
  SHSY5Y cell Induction of BDNF expression: − (not or less than 20% (−; <20%))
[4]
  Macrophage Inhibition of TNF-α expression: − (not or less than 20% (−; <20%))
[5]
  PC12 cell Induction of NPY expression: − (not or less than 20% (−; <20%))
[6]
  Macrophage Induction of IL-10 expression: − (not or less than 20% (−; <20%))
[7]
  Gut microbiota Inhibition of difficile bacteria proliferation: ++ (strongly (++; >60-90%))
